Measurements published in ChEMBL document CHEMBL3396992, “Synthesis and biological evaluation of pyrazolylthiazole carboxylic acids as potent anti-inflammatory-antimicrobial agents” (2015).
≈ marks a conversion by molar mass, not a printed value. Calls of active or inactive are those of the source. The rule behind the calls is not given here.

What was measured:
[1] = system: Rattus norvegicus; assay: Antiinflammatory activity against carrageenan-induced paw edema male Wistar albino rat assessed as edema volume at 50 mg/kg, po administered 30 mins prior to carrageenan-challenge measured after 1 hr (reference value: 1.11 +/- 0.12 mL); type: functional
[2] = system: Rattus norvegicus; assay: Antiinflammatory activity against carrageenan-induced paw edema male Wistar albino rat at 50 mg/kg, ip administered 30 mins prior to carrageenan-challenge measured after 4 hrs relative to control; type: functional; settings: route intraperitoneal
[3] = system: Rattus norvegicus; assay: Antiinflammatory activity against carrageenan-induced paw edema male Wistar albino rat assessed as edema volume at 50 mg/kg, ip administered 30 mins prior to carrageenan-challenge measured after 4 hrs (reference value: 1.88 +/- 0.20 mL); type: functional; settings: route intraperitoneal
[4] = system: Bacillus subtilis; assay: Antimicrobial activity against Bacillus subtilis MTCC 121 assessed as growth inhibition after 24 hrs by agar well diffusion method; type: functional
[5] = system: Rattus norvegicus; assay: Antiinflammatory activity against carrageenan-induced paw edema male Wistar albino rat at 50 mg/kg, ip administered 30 mins prior to carrageenan-challenge measured after 1 hr relative to control; type: functional; settings: route intraperitoneal
[6] = system: Candida albicans; assay: Antimicrobial activity against Candida albicans MTCC 3017 assessed as growth inhibition at 4 mg/ml after 24 hrs by agar well diffusion method; type: functional; settings: MTCC 3017, 24 h, read-out: DIZ
[7] = system: Rattus norvegicus; assay: Antiinflammatory activity against carrageenan-induced paw edema male Wistar albino rat at 50 mg/kg, ip administered 30 mins prior to carrageenan-challenge measured after 3 hrs relative to control; type: functional; settings: route intraperitoneal
[8] = system: Escherichia coli; assay: Antimicrobial activity against Escherichia coli MTCC 1652 assessed as growth inhibition at 4 mg/ml after 24 hrs by agar well diffusion method; type: functional, organism-based
[9] = system: Rattus norvegicus; assay: Antiinflammatory activity against carrageenan-induced paw edema male Wistar albino rat assessed as edema volume at 50 mg/kg, ip administered 30 mins prior to carrageenan-challenge measured after 2 hrs (reference value: 1.21 +/- 0.16 mL); type: functional; settings: route intraperitoneal
[10] = system: Saccharomyces cerevisiae; assay: Antimicrobial activity against Saccharomyces cerevisiae MTCC 170 assessed as growth inhibition after 24 hrs by agar well diffusion method; type: functional
[11] = system: Bacillus subtilis; assay: Antimicrobial activity against Bacillus subtilis MTCC 121 assessed as growth inhibition at 4 mg/ml after 24 hrs by agar well diffusion method; type: functional; settings: for zone of inhibition at 4000 µg/mL: MTCC 121, 24 h, read-out: DIZ
[12] = system: Pseudomonas aeruginosa; settings: MTCC 741, 4 mg/ml
Description: Antimicrobial activity against Pseudomonas aeruginosa MTCC 741 assessed as growth inhibition at 4 mg/ml after 24 hrs by agar well diffusion method

[13] = system: Candida albicans; assay: Antimicrobial activity against Candida albicans MTCC 3017 assessed as growth inhibition after 24 hrs by agar well diffusion method; type: functional; settings: MTCC 3017, 24 h
[14] = system: Rattus norvegicus; assay: Antiinflammatory activity against carrageenan-induced paw edema male Wistar albino rat assessed as edema volume at 50 mg/kg, ip administered 30 mins prior to carrageenan-challenge measured after 3 hrs (reference value: 1.73 +/- 0.09 mL); type: functional; settings: route intraperitoneal
[15] = system: Staphylococcus aureus; assay: Antimicrobial activity against Staphylococcus aureus MTCC 96 assessed as growth inhibition at 4 mg/ml after 24 hrs by agar well diffusion method; type: functional; settings: for zone of inhibition at 4000 µg/mL: MTCC 96, 24 h, read-out: DIZ
[16] = system: Saccharomyces cerevisiae; assay: Antimicrobial activity against Saccharomyces cerevisiae MTCC 170 assessed as growth inhibition at 4 mg/ml after 24 hrs by agar well diffusion method; type: functional; settings: for zone of inhibition at 4000 µg/mL: MTCC 170, 24 h, read-out: DIZ
[17] = system: Staphylococcus aureus; assay: Antimicrobial activity against Staphylococcus aureus MTCC 96 assessed as growth inhibition after 24 hrs by agar well diffusion method; type: functional
[18] = system: Rattus norvegicus; assay: Antiinflammatory activity against carrageenan-induced paw edema male Wistar albino rat at 50 mg/kg, ip administered 30 mins prior to carrageenan-challenge measured after 2 hrs relative to control; type: functional; settings: route intraperitoneal

SMILES	Activity [1]	Activity [2]	Activity [3]	MIC ([4]; MTCC 121, 24 h)	Activity [5]	zone of inhibition at 4000 µg/mL [6]	Activity [7]	diameter of the inhibition zone (DIZ) [8]	Activity [9]	MIC ([10]; MTCC 170, 24 h)	zone of inhibition at 4000 µg/mL [11]	DIZ [12]	MIC [13]	Activity [14]	zone of inhibition at 4000 µg/mL [15]	zone of inhibition at 4000 µg/mL [16]	MIC ([17]; MTCC 96, 24 h)	Activity [18]	diameter of the inhibition zone (DIZ) [15]	MIC [17]	further results
COc1ccc(-c2nc(-c3cn(-c4ccccc4)nc3-c3ccccc3)sc2C(=O)O)cc1	0.19 mL	88.29%	0.22 mL	50 µg/mL (≈ 110 µM)	82.88%	15.3 mm	86.12%	inactive	0.25 mL	25 µg/mL (≈ 55.1 µM)	17.6 mm	inactive	50 µg/mL (≈ 110 µM)	0.24 mL	20.3 mm	21.3 mm	25 µg/mL (≈ 55.1 µM)	79.33%	–	–	–
O=C(O)c1sc(-c2cn(-c3ccccc3)nc2-c2ccc(F)cc2)nc1-c1ccccc1	0.14 mL	90.42%	0.18 mL	25 µg/mL (≈ 56.6 µM)	87.38%	21.3 mm	78.61%	inactive	0.22 mL	50 µg/mL (≈ 113 µM)	18.3 mm	inactive	25 µg/mL (≈ 56.6 µM)	0.37 mL	20.3 mm	> 20 mm	25 µg/mL (≈ 56.6 µM)	81.81%	–	–	–
CCOC(=O)c1sc(-c2cn(-c3ccccc3)nc2-c2ccc(Cl)cc2)nc1-c1ccc(Cl)cc1	0.18 mL	90.42%	0.18 mL	–	83.78%	13 mm	93.06%	inactive	0.27 mL	50 µg/mL (≈ 96.1 µM)	–	inactive	50 µg/mL (≈ 96.1 µM)	0.12 mL	–	15 mm	–	77.68%	inactive	inactive	MIC [4]: inactive; diameter of the inhibition zone (DIZ) [11]: inactive
CCOC(=O)c1sc(-c2cn(-c3ccccc3)nc2-c2ccccc2)nc1-c1ccc(OC)cc1	0.22 mL	81.91%	0.34 mL	50 µg/mL (≈ 104 µM)	80.18%	16.3 mm	86.12%	inactive	0.29 mL	–	13.6 mm	inactive	50 µg/mL (≈ 104 µM)	0.24 mL	–	–	–	76.03%	inactive	inactive	MIC [10]: inactive; diameter of the inhibition zone (DIZ) [16]: inactive
COc1ccc(-c2nc(-c3cn(-c4ccccc4)nc3-c3ccc(Cl)cc3)sc2C(=O)O)cc1	0.15 mL	88.82%	0.21 mL	25 µg/mL (≈ 51.2 µM)	86.48%	25.3 mm	90.75%	inactive	0.19 mL	50 µg/mL (≈ 102 µM)	18.3 mm	inactive	12.5 µg/mL (≈ 25.6 µM)	0.16 mL	–	12 mm	–	89.29%	inactive	inactive	–
O=C(O)c1sc(-c2cn(-c3ccccc3)nc2-c2ccc(Cl)cc2)nc1-c1ccc(F)cc1	0.29 mL	79.78%	0.38 mL	–	73.87%	12 mm	71.67%	inactive	0.33 mL	12.5 µg/mL (≈ 26.3 µM)	–	inactive	50 µg/mL (≈ 105 µM)	0.49 mL	–	24.6 mm	–	72.72%	inactive	inactive	MIC [4]: inactive; diameter of the inhibition zone (DIZ) [11]: inactive
O=C(O)c1sc(-c2cn(-c3ccccc3)nc2-c2ccccc2)nc1-c1ccccc1	0.24 mL	84.04%	0.3 mL	25 µg/mL (≈ 59 µM)	87.37%	17.6 mm	83.81%	inactive	0.39 mL	12.5 µg/mL (≈ 29.5 µM)	18.6 mm	inactive	50 µg/mL (≈ 118 µM)	0.28 mL	24.6 mm	23.6 mm	12.5 µg/mL (≈ 29.5 µM)	67.76%	–	–	–
CCOC(=O)c1sc(-c2cn(-c3ccccc3)nc2-c2ccc(Cl)cc2)nc1-c1ccc(F)cc1	0.18 mL	89.89%	0.19 mL	50 µg/mL (≈ 99.2 µM)	83.78%	17.6 mm	71.09%	inactive	0.47 mL	–	13.3 mm	inactive	50 µg/mL (≈ 99.2 µM)	0.5 mL	12 mm	–	50 µg/mL (≈ 99.2 µM)	61.15%	–	–	MIC [10]: inactive; diameter of the inhibition zone (DIZ) [16]: inactive
O=C(O)c1sc(-c2cn(-c3ccccc3)nc2-c2ccccc2)nc1-c1ccc(F)cc1	0.19 mL	90.95%	0.17 mL	25 µg/mL (≈ 56.6 µM)	82.88%	25.6 mm	89.59%	inactive	0.16 mL	25 µg/mL (≈ 56.6 µM)	18.3 mm	inactive	12.5 µg/mL (≈ 28.3 µM)	0.18 mL	24.6 mm	20.6 mm	12.5 µg/mL (≈ 28.3 µM)	86.77%	–	–	–
